Laboratory results from patent publication USRE39616E1, “Aminoindan derivatives” (priority 1996, dated 2007).
Structures can show the parent of a compound that is named as a salt. Where two headings read alike, the source gives them in different places.

Legend:
MAO-A [1] = target: T1, MAO-A (Mus musculus, UniProt Q64133); experiment: Inhibition of MAO activity ex vivo (brain); assay type: in vivo, mice
T1 construct: from tissue; host or cells: mouse brain
T1 sequence (Q64133 1-526): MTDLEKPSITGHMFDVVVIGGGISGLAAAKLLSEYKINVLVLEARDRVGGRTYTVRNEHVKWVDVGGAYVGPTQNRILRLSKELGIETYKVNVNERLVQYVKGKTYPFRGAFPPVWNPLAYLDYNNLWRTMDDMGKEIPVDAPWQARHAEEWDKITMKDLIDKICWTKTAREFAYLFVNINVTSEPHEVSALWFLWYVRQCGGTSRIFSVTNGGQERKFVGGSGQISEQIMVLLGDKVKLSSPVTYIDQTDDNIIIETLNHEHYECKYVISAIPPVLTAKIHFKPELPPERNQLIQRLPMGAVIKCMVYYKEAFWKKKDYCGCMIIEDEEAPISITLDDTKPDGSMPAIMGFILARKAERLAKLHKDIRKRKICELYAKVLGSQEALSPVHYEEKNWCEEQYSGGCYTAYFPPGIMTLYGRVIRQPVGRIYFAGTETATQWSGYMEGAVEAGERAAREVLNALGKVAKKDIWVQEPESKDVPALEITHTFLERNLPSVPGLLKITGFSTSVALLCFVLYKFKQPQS
Method in brief: (§1)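 Male Sabra mice dosed with compound in 0.9% saline (2-3 per dose) and killed 2 h post-dose or at peak AChE-inhibition time. Brain homogenized in 0.3 M sucrose and assayed for MAO activity with 50 μM PEA (MAO-B) or 1 mM 5-HT (MAO-A) as substrate.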

MAO-B = target: T2, MAO-B (Mus musculus, UniProt Q8BW75); experiment: Inhibition of MAO activity ex vivo (brain); assay type: in vivo, mice
T2 construct: from tissue; host or cells: mouse brain
T2 sequence (Q8BW75 1-520): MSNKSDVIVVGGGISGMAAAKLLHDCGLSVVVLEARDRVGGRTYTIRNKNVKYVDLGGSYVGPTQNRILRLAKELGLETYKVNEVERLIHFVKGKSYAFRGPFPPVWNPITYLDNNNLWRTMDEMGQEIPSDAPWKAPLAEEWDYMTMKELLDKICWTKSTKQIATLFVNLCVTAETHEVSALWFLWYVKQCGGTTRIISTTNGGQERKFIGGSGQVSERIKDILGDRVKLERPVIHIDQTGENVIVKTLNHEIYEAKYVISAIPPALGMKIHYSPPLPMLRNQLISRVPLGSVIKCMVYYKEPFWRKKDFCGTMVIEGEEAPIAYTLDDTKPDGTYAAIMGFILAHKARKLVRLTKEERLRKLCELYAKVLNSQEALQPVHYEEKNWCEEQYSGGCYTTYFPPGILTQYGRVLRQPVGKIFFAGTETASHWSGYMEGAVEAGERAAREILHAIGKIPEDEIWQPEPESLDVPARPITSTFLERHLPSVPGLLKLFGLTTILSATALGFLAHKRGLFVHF
Method in brief: as §1

[2] = tested on: mice, hypobaric hypoxic model; experiment: animal or person; assay type: in vivo; conditions: Mus musculus; for response vs control in vivo at 8 mg/kg: read-out: Protection (survival time), 8 mg/kg sc, 60 min before hypoxia
Excerpt: A 12 liter desiccator (desiccator A) and a 2.5 liter desiccator (desiccator B) were separately connected to a vacuum pump. Desiccator B was disconnected and allowed to equilibrate with room air whilst desiccator A was evacuated to a pressure of 100 mmHg. Four male ICR albino mice (22-28 g) were placed in desiccator B. Desiccator B was then closed to room air and connected to desiccator A. The pressure inside desiccator B was monitored using a mercury manometer and at the point were the pressure in desiccator B reached 200 mmpg (usually within 14 seconds), the two desiccators were disconnected from the vacuum pump and the pump switched off. The survival time from the moment of induction of hypoxia to the time of cessation of respiration was recorded for each mouse for a maximum of 15 minutes after which time room air was reintroduced to desiccator B. Survivors were monitored for signs of lethargy or vitality.
Effect of drug treatment was assessed as the percent of the survival time of the drug treated group with respect to the saline injected or vehicle injected control group. […] The effect of each dose of test drug was determined in duplicate i.e. two groups of 4 mice.
Positive reference drugs were sodium pentobarbital at a dose of 40 mg/kg, and diazepam 10 mg/kg given 0.5 h prior to hypoxia, physostigmine 0.2 and 0.4 mg/kg and neostigmine 0.2 mg/kg given sc 30 min before hypoxia. Methyl atropine 1 mg/kg was given sc. 10 min. before physostigmine.
Test drugs were dissolved in 0.9% saline, and injected sc. in the nip of the neck at a dose in accordance with body weight, 60-90 min. before hypoxia. The volume of injection was 0.2-0.3 mL per mouse (10 mL/kg). The initial dose was about one third of the reported LD50 for acetylcholine esterase inhibition. If no protection could be obtained, the dose was further increased to the nearest non-toxic dose. In case of protection, the dose was further reduced in an attempt to locate the “protective” dose range.

MAO-A [3] = target: T3, MAO-A (Rattus norvegicus, UniProt P21396); experiment: Inhibition of MAO activity in vitro, 5-HT as substrate; assay type: biochemical; design: The MAO enzyme source was a homogenate of rat brain in 0.3M sucrose; from tissue; host or cells: rat brain homogenate, 600 g supernatant
T3 sequence (P21396 1-526): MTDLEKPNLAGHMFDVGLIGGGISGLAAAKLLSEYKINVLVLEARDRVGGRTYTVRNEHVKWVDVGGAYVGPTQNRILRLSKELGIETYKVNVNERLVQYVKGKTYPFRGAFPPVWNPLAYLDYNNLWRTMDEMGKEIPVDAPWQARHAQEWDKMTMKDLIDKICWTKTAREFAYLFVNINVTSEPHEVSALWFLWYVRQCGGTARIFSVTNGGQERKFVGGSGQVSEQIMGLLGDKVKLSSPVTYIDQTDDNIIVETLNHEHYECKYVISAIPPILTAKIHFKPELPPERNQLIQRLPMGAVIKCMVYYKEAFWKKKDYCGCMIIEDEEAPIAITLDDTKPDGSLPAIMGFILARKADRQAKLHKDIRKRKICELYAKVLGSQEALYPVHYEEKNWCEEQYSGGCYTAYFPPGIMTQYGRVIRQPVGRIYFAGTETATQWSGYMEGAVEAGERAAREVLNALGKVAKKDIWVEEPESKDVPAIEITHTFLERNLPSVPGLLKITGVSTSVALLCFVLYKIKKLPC
Description: Substrate concentrations used were 50 μM (PEA) and 1 mM (5-HT).

[4] = mice, within 6 hours after administration
[5] = MAO-A Inhibition In vitro IC50, rat brain homogenate, 5-HT substrate
[6] = sc, read-out: Protection (survival time), 50 mg/kg sc, 60 min before hypoxia

Row | SMILES | MAO-A Inhibition Ex vivo ED50 (MAO-A [1]; mice, brain tissue) | MAO-B Inhibition Ex vivo ED50 (MAO-B; mice, brain tissue) | response vs control in vivo at 8 mg/kg ([2]; sc) [%] | Acute Toxicity LD50 (LD) (mice; [4]) [µmol/kg] | IC50 (MAO-A [3]; [5]) [µM] | response vs control in vivo at 50 mg/kg [2, 6] [%] | Acute Toxicity LD50 (LD) (mice; mouse, in vivo) [µmol/kg] | Therapeutic Ratio LD/AC (mice; mouse, in vivo) | also measured
1 | CN(C)C(=O)Oc1ccc2c(c1)C(N)CC2 (centres unmarked) [Compound 1] | >>80 μmoles/kg | >>80 μmoles/kg | 637 ± 116 | 83.8 | 75 | – | – | – | response vs control in vivo at 2 mg/kg ([2]; sc, read-out: Protection (survival time), 2 mg/kg sc, 60 min before hypoxia): 120 ± 51%; response vs control in vivo at 4 mg/kg ([2]; sc, read-out: Protection (survival time), 4 mg/kg sc, 60 min before hypoxia): 470 ± 200%
2 | C#CCNC1CCc2cccc(OC(=O)N(C)C)c21 (centres unmarked) [Compound 27] | >>160 μmoles/kg | >>160 μmoles/kg | 119 ± 45 | – | > 1000 | 455 ± 23 | 300 | 10 | response vs control in vivo at 3 mg/kg ([2]; sc, read-out: Protection (survival time), 3 mg/kg sc, 60 min before hypoxia): 287 ± 319%; response vs control in vivo at 15 mg/kg ([2]; sc, read-out: Protection (survival time), 15 mg/kg sc, 60 min before hypoxia): 143 ± 56%
3 | C#CCNC1CCc2ccc(OC(=O)N(C)C)cc21 (centres unmarked) [Compound 24, 6-(N,N-Dimethylcarbamyloxy)-N-propargyl aminoindan mesylate] | >120 µmol/kg | 100 µmol/kg | – | – | 850 | 738 | 179 | – | response vs control in vivo at 21 mg/kg ([2]; sc, read-out: Protection (survival time), 21 mg/kg sc, 60 min before hypoxia): 269 ± 166%
4 | C#CCN(C)C1CCc2ccc(OC(=O)N(C)C)cc21 (centres unmarked) [Compound 29] | 50 µmol/kg | 30 µmol/kg | – | – | 40 | – | 500 | 9.3 | response vs control in vivo at 25 mg/kg ([2]; sc, read-out: Protection (survival time), 25 mg/kg sc, 30 min before hypoxia): 273 ± 183%; response vs control in vivo at 25 mg/kg ([2]; sc, read-out: Protection (survival time), 25 mg/kg sc, 60 min before hypoxia): 131 ± 56%; response vs control in vivo at 53 mg/kg ([2]; sc, read-out: Protection (survival time), 53 mg/kg sc, 60 min before hypoxia): 638 ± 10%; response vs control in vivo at 77 mg/kg ([2]; sc, read-out: Protection (survival time), 77 mg/kg sc, 60 min before hypoxia): 508 ± 206%
5 | C#CCNC1CCc2ccc(OC(=O)N(C)CC)cc21 (centres unmarked) [Compound 25, 6-(N-Me, N-Etcarbamyloxy) N-propargyl aminoindan, HCl] | – | – | – | 1400 | – | – | – | 10.8 | MAO-A Inhibition Ex vivo ED50 (MAO-A [1]; mouse, in vivo): >>350 μmoles/kg; MAO-B Inhibition Ex vivo ED50 (MAO-B; mouse, in vivo): 200 µmol/kg; response vs control in vivo at 25 mg/kg ([2]; 25 mg/kg sc, 60 min before hypoxia, read-out: Protection (survival time)): 84 ± 35%; response vs control in vivo at 50 mg/kg ([2]; 50 mg/kg sc, 60 min before hypoxia, read-out: Protection (survival time)): 380 ± 231%; response vs control in vivo at 75 mg/kg ([2]; 75 mg/kg sc, 60 min before hypoxia, read-out: Protection (survival time)): 559 ± 225%; response vs control in vivo at 100 mg/kg ([2]; 100 mg/kg sc, 60 min before hypoxia, read-out: Protection (survival time)): 761 ± 91%; IC50 (MAO-A [3]; MAO-A Inhibition In vitro IC50): 270 µM
6 | CCN(C)C(=O)Oc1ccc2c(c1)C(NC)CC2 (centres unmarked) [Compound 10] | >175 µmol/kg | >175 µmol/kg | – | 740 | – | – | – | – | response vs control in vivo at 10 mg/kg ([2]; sc, read-out: Protection (survival time), 10 mg/kg sc, 90 min before hypoxia): 304 ± 129%; response vs control in vivo at 25 mg/kg ([2]; sc, read-out: Protection (survival time), 25 mg/kg sc, 90 min before hypoxia): 700 ± 201%; response vs control in vivo at 50 mg/kg ([2]; sc, read-out: Protection (survival time), 50 mg/kg sc, 90 min before hypoxia): 705 ± 101%; IC50 (MAO-A [3]; rat brain homogenate, 5-HT substrate, read-out: MAO-A Inhibition In vitro IC50): 22 µM
